This is an account of results in PubChem BioAssay AID180 (DTP/NCI, 2004).

The experiment has as its system BDF1 mice, Adenocarcinoma 755 s.c., tumor weight T/C. Kind of experiment: NCI In Vivo Anticancer Drug Screen. Data for tumor model Adenocarcinoma 755 (subcutaneous) in B6D2F1 (BDF1) mice. The conditions noted are these: endpoint: mean tumor weight, higher = larger tumour. The procedure, abridged: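 Compound activity was tested in mice carrying transplanted tumors. Survival or tumor size was measured, and each value is the treated-group measurement divided by that of the vehicle-treated control group (T/C).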

Setting [1] is: dose: 15.0 mg/kg/injection, schedule: Q01DX011 (ip), vehicle: saline.

Values joined by “and” are separate entries in the source; they are usually repeats but may differ in a detail not shown here. Identical values can stand only once. Starred links: 1 amine or outer side, 2 acyl side, 3 side chain; linkers in the order of their positions; H or OH if unused. Positions of bridges follow the written chain, without caps; N, C: chain ends. Non-standard residues stand in square brackets, D forms with d. Residues, ends and D or L forms follow the SMILES beside them. Chains are numbered I, II in the order given. Actinocin(9to1) = Cc1c2oc3c(C)ccc(C(=O)[*:1])c3nc-2c(C(=O)[*:2])c(N)c1=O; aThr = C[C@H](O)[C@H](N)C(=O)O; NMeV = CN[C@H](C(=O)O)C(C)C; Sar = CNCC(=O)O

For orientation: T/C means the ratio of treated to control. Consider `CN1CCC(N)=NC1=O`, for which the T/C was 88 % of control under setting [1]; 92 % of control (dose: 31.0 mg/kg/injection, schedule: Q01DX011 (ip), vehicle: saline); 92 % of control (dose: 62.0 mg/kg/injection, schedule: Q01DX011 (ip), vehicle: saline); 65 % of control (dose: 125.0 mg/kg/injection, schedule: Q01DX011 (ip), vehicle: saline); 74 % of control (dose: 250.0 mg/kg/injection, schedule: Q01DX011 (ip), vehicle: saline).

As for `O=CN(O)CC(=O)O`, the T/C is 98 % of control (dose: 62.5 mg/kg/injection, schedule: Q01DX011 (ip), vehicle: carboxymethylcellulose (CMC)); 86 % of control (dose: 125.0 mg/kg/injection, schedule: Q01DX011 (ip), vehicle: carboxymethylcellulose (CMC)); 85 % of control (dose: 250.0 mg/kg/injection, schedule: Q01DX011 (ip), vehicle: carboxymethylcellulose (CMC)).

Take `CS(=O)(=O)OCCC(=O)N1CCN(C(=O)CCOS(C)(=O)=O)CC1`: the T/C is, setting by setting: (dose: 9.4 mg/kg/injection, schedule: Q01DX011 (ip), vehicle: methylcellulose (MC)) 73 % of control; (dose: 22.0 mg/kg/injection, schedule: Q01DX011 (ip), vehicle: methylcellulose (MC)) 24 % of control and 45 % of control; (dose: 37.5 mg/kg/injection, schedule: Q01DX011 (ip), vehicle: methylcellulose (MC)) 15 % of control; (dose: 44.0 mg/kg/injection, schedule: Q01DX011 (ip), vehicle: methylcellulose (MC)) 9 % of control and 18 % of control; (dose: 88.0 mg/kg/injection, schedule: Q01DX011 (ip), vehicle: methylcellulose (MC)) 3 % of control and 6 % of control.

As to `Cc1c2oc3c(C)ccc(C(=O)N[C@@H]4C(=O)N[C@H](C(C)C)C(=O)N5CCC[C@H]5C(=O)N(C)CC(=O)N(C)[C@@H](C(C)C)C(=O)O[C@H]4C)c3nc-2c(C(=O)N[C@@H]2C(=O)N[C@H](C(C)C)C(=O)N3CCC[C@H]3C(=O)N(C)CC(=O)N(C)[C@@H](C(C)C)C(=O)O[C@H]2C)c(N)c1=O` (I: [aThr][dV]P[Sar][NMeV] / II: [aThr][dV]P[Sar][NMeV]; ester I:1-I:C, II:1-II:C; linker I:N-II:N via Actinocin(9to1)), the T/C reads like this: (dose: 0.02 mg/kg/injection, schedule: Q01DX011 (ip), vehicle: saline) 2 % of control; (dose: 0.03 mg/kg/injection, schedule: Q01DX011 (ip), vehicle: carboxymethylcellulose (CMC)) 9 % of control; (dose: 0.04 mg/kg/injection, schedule: Q01DX011 (ip), vehicle: carboxymethylcellulose (CMC)) 105 % of control; (dose: 0.08 mg/kg/injection, schedule: Q01DX011 (ip), vehicle: carboxymethylcellulose (CMC)) 39 % of control; (dose: 12.0 micrograms/kg/injection, schedule: Q01DX011 (ip), vehicle: carboxymethylcellulose (CMC)) 101 % of control; (dose: 15.0 micrograms/kg/injection, schedule: Q01DX011 (ip), vehicle: carboxymethylcellulose (CMC)) 82 % of control. The T/C is, setting by setting: (dose: 24.0 micrograms/kg/injection, schedule: Q01DX011 (ip), vehicle: carboxymethylcellulose (CMC)) 26 % of control and 43 % of control; (dose: 40.0 micrograms/kg/injection, schedule: Q01DX011 (ip), vehicle: carboxymethylcellulose (CMC)) 4 % of control and 13 % of control; (dose: 48.0 micrograms/kg/injection, schedule: Q01DX011 (ip), vehicle: carboxymethylcellulose (CMC)) 10 % of control and 11 % of control; (dose: 53.0 micrograms/kg/injection, schedule: Q01DX011 (ip), vehicle: carboxymethylcellulose (CMC)) 3 % of control and 4 % of control; (dose: 95.0 micrograms/kg/injection, schedule: Q01DX011 (ip), vehicle: carboxymethylcellulose (CMC)) 2 % of control.

As for `CC(C)CCCCCCCCCCCCC(=O)NCC(=O)NC1C(O)C(O)C(Nc2ncnc3nc[nH]c23)OC1C(O)CO` (configuration not stated), the T/C was 62 % of control (dose: 0.11 mg/kg/injection, schedule: Q## X000 (ip), vehicle: carboxymethylcellulose (CMC)); 65 % of control (dose: 0.22 mg/kg/injection, schedule: Q01DX011 (ip), vehicle: carboxymethylcellulose (CMC)); 41 % of control (dose: 0.22 mg/kg/injection, schedule: Q## X000 (ip), vehicle: carboxymethylcellulose (CMC)); 29 % of control (dose: 0.45 mg/kg/injection, schedule: Q01DX011 (ip), vehicle: carboxymethylcellulose (CMC)); 12 % of control (dose: 0.45 mg/kg/injection, schedule: Q## X000 (ip), vehicle: carboxymethylcellulose (CMC)); 5 % of control (dose: 0.9 mg/kg/injection, schedule: Q01DX011 (ip), vehicle: carboxymethylcellulose (CMC)).

Turning to `C[C@]12CC[C@H](O)CC1=CC[C@@H]1[C@@H]2[C@@H](O)C[C@@]2(C)[C@H]1CC[C@]2(C)O`, the T/C is 96 % of control (dose: 100.0 mg/kg/injection, schedule: Q01DX011 (sc), vehicle: steriod suspending solution) and 93 % of control (dose: 300.0 mg/kg/injection, schedule: Q01DX011 (sc), vehicle: steriod suspending solution).

As for `CN(C)[C@@H]1C(=O)C(C(=O)NCN(CCCl)CCCl)=C(O)[C@@]2(O)C(=O)C3=C(O)c4c(O)cccc4[C@@](C)(O)[C@H]3C[C@@H]12`, the T/C is, setting by setting: (dose: 0.5 mg/kg/injection, schedule: Q01DX011 (ip), vehicle: methylcellulose (MC)) 111 % of control; (dose: 5.0 mg/kg/injection, schedule: Q01DX011 (ip), vehicle: methylcellulose (MC)) 98 % of control; (dose: 10.0 mg/kg/injection, schedule: Q01DX011 (ip), vehicle: methylcellulose (MC)) 44 % of control; under setting [1], 37 % of control and 60 % of control; (dose: 20.0 mg/kg/injection, schedule: Q01DX011 (ip), vehicle: methylcellulose (MC)) 35 % of control; (dose: 60.0 mg/kg/injection, schedule: Q01DX011 (ip), vehicle: saline) 36 % of control.

For `NNC(=O)c1ccncc1`, the T/C was 116 % of control (dose: 15.13 mg/kg/injection, schedule: Q01DX011 (ip), vehicle: carboxymethylcellulose (CMC)); 160 % of control (dose: 17.62 mg/kg/injection, schedule: Q01DX011 (ip), vehicle: carboxymethylcellulose (CMC)); 112 % of control (dose: 19.25 mg/kg/injection, schedule: Q01DX011 (ip), vehicle: carboxymethylcellulose (CMC)); 109 % of control (dose: 30.25 mg/kg/injection, schedule: Q01DX011 (ip), vehicle: carboxymethylcellulose (CMC)); 78 % of control (dose: 38.5 mg/kg/injection, schedule: Q01DX011 (ip), vehicle: carboxymethylcellulose (CMC)); 121 % of control (dose: 60.5 mg/kg/injection, schedule: Q01DX011 (ip), vehicle: carboxymethylcellulose (CMC)). Besides, the T/C is, setting by setting: (dose: 70.5 mg/kg/injection, schedule: Q01DX011 (ip), vehicle: carboxymethylcellulose (CMC)) 178 % of control; (dose: 77.0 mg/kg/injection, schedule: Q01DX011 (ip), vehicle: carboxymethylcellulose (CMC)) 122 % of control; (dose: 121.0 mg/kg/injection, schedule: Q01DX011 (ip), vehicle: carboxymethylcellulose (CMC)) 100 % of control; (dose: 141.0 mg/kg/injection, schedule: Q01DX011 (ip), vehicle: carboxymethylcellulose (CMC)) 202 % of control.

With `CCC(C)Sc1nc(N)nc2c1ncn2C1OC(CO)C(O)C1O` (configuration not stated), the T/C was 2 % of control (dose: 200.0 mg/kg/injection, schedule: Q01DX011 (ip), vehicle: carboxymethylcellulose (CMC)) and 2 % of control (dose: 300.0 mg/kg/injection, schedule: Q01DX011 (ip), vehicle: carboxymethylcellulose (CMC)).

On to `CSc1ncc(C)c(=O)[nH]1`, for which the T/C by setting is: (dose: 15.0 mg/kg/injection, schedule: Q01DX011 (ip), vehicle: methylcellulose (MC)) 113 % of control; (dose: 31.0 mg/kg/injection, schedule: Q01DX011 (ip), vehicle: methylcellulose (MC)) 124 % of control; (dose: 62.0 mg/kg/injection, schedule: Q01DX011 (ip), vehicle: methylcellulose (MC)) 99 % of control.

For the compound `CS(=O)(=O)OCC(=O)NCCNC(=O)COS(C)(=O)=O`, the T/C runs as follows: (dose: 8.75 mg/kg/injection, schedule: Q01DX011 (ip), vehicle: carboxymethylcellulose (CMC)) 107 % of control; (dose: 17.5 mg/kg/injection, schedule: Q01DX011 (ip), vehicle: carboxymethylcellulose (CMC)) 50 % of control; (dose: 35.0 mg/kg/injection, schedule: Q01DX011 (ip), vehicle: carboxymethylcellulose (CMC)) 49 % of control; (dose: 40.0 mg/kg/injection, schedule: Q01DX011 (ip), vehicle: carboxymethylcellulose (CMC)) 61 % of control; (dose: 60.0 mg/kg/injection, schedule: Q01DX011 (ip), vehicle: carboxymethylcellulose (CMC)) 20 % of control; (dose: 70.0 mg/kg/injection, schedule: Q01DX011 (ip), vehicle: carboxymethylcellulose (CMC)) 12 % of control. Also, the T/C runs as follows: (dose: 95.0 mg/kg/injection, schedule: Q01DX011 (ip), vehicle: carboxymethylcellulose (CMC)) 9 % of control; (dose: 140.0 mg/kg/injection, schedule: Q01DX011 (ip), vehicle: carboxymethylcellulose (CMC)) 2 % of control and 6 % of control; (dose: 210.0 mg/kg/injection, schedule: Q01DX011 (ip), vehicle: carboxymethylcellulose (CMC)) 7 % of control.
